Measurements reported in PMC12707346, “Discovery and validation of small molecule stabilizers of mutant triose phosphate isomerase (TPI) as potential lead candidates for TPI deficiency” (SLAS discovery : advancing life sciences R & D, 2025).
“And” between values parts separate entries of the source, which are not always exact repeats. Identical values can stand only once. Like-named read-outs stand apart in the source and are kept apart here.

Test: Tissue distribution study in mice, 20 mg/kg i.p.
Format: in vivo, C57BL/6 J mice
Conditions: mouse; for Plasma or Tissue Homogenate Conc (individual animals) / concentration at 0.5 h / concentration at 1 h / concentration at 2 h / concentration at 4 h / concentration at 8 h: 20 mg/kg
Protocol: Male C57BL/6 J (Jackson Laboratories) wild type mice (age: 40–60 days) weighing 25–30 g, were used for the tissue distribution study. Mice were randomly assigned in two groups: blank (n = 1) and treatment. The treatment group received 20 mg/kg compound 424 intraperitoneally (n = 15; 3 animals per time point i.e., 0.5, 1, 2, 4, and 8 h). Molport 002–877–424 was formulated in a vehicle consisting of 20 % DMSO, 50 % PEG300, and 30 % sterile water. At each time point animals were euthanized via isoflurane overdose. Blood was collected in ETDA-coated tubes at each time points and centrifuged at 15,000 x g for 5 min. The separated plasma was stored at −80 °C. Following blood collection, liver, kidney, skeletal muscle and brain were isolated, rinsed in normal saline and approximately 100 mg of tissues were snap-frozen and stored at −80 °C. All plasma and tissue samples were shipped on dry ice to Touchstone Biosciences for further analysis. Sample preparation and analysis was performed at Touchstone Biosciences exactly as described in [20].

With `c1ccc(-c2nnc(-c3ccccn3)nc2NC2CCCCC2)cc1` [MolPort-002-877-424, C1CCC(CC1)Nc2nc(nnc2c3ccccc3)c4ccccn4] the “Plasma or Tissue Homogenate Conc (individual animals)” value (“Plasma or Tissue Homogenate Conc” for short) (Brain, 0.5 h, IP 20 mg/kg) was 391 ng/mL and 321 ng/mL, the “Plasma or Tissue Homogenate Conc” value (Brain, 1 h, IP 20 mg/kg) was 323 ng/mL and 318 ng/mL and the “Plasma or Tissue Homogenate Conc” value (Brain, 2 h, IP 20 mg/kg) was 160 ng/mL and 129 ng/mL. The “Plasma or Tissue Homogenate Conc” value (Brain, 4 h, IP 20 mg/kg) was 69.3 ng/mL and 59.0 ng/mL, the “Plasma or Tissue Homogenate Conc” value (Brain, 8 h, IP 20 mg/kg) was 29.7 ng/mL and 17.1 ng/mL and the “Plasma or Tissue Homogenate Conc” value (Kidney, 0.5 h, IP 20 mg/kg) was 2870 ng/mL and 2290 ng/mL. The “Plasma or Tissue Homogenate Conc” value (Kidney, 1 h, IP 20 mg/kg) was 2330 ng/mL and 2470 ng/mL, the “Plasma or Tissue Homogenate Conc” value (Kidney, 2 h, IP 20 mg/kg) was 1240 ng/mL and 925 ng/mL and the “Plasma or Tissue Homogenate Conc” value (Kidney, 4 h, IP 20 mg/kg) was 538 ng/mL and 466 ng/mL. For the same compound, the “Plasma or Tissue Homogenate Conc” value (Kidney, 8 h, IP 20 mg/kg) was 239 ng/mL and 196 ng/mL, the “Plasma or Tissue Homogenate Conc” value (Liver, 0.5 h, IP 20 mg/kg) was 3410 ng/mL and 3100 ng/mL and the “Plasma or Tissue Homogenate Conc” value (Liver, 1 h, IP 20 mg/kg) was 3010 ng/mL and 3640 ng/mL. For the same compound, the “Plasma or Tissue Homogenate Conc” value (Liver, 2 h, IP 20 mg/kg) was 1750 ng/mL and 1580 ng/mL, the “Plasma or Tissue Homogenate Conc” value (Liver, 4 h, IP 20 mg/kg) was 777 ng/mL and 744 ng/mL and the “Plasma or Tissue Homogenate Conc” value (Liver, 8 h, IP 20 mg/kg) was 311 ng/mL and 303 ng/mL. The “Plasma or Tissue Homogenate Conc” value (Muscle, 0.5 h, IP 20 mg/kg) was 648 ng/mL and 456 ng/mL, the “Plasma or Tissue Homogenate Conc” value (Muscle, 1 h, IP 20 mg/kg) was 354 ng/mL and 480 ng/mL and the “Plasma or Tissue Homogenate Conc” value (Muscle, 2 h, IP 20 mg/kg) was 206 ng/mL and 218 ng/mL. The “Plasma or Tissue Homogenate Conc” value (Muscle, 4 h, IP 20 mg/kg) was 92.1 ng/mL and 94.2 ng/mL, the “Plasma or Tissue Homogenate Conc” value (Muscle, 8 h, IP 20 mg/kg) was 39.8 ng/mL and 33.3 ng/mL and the “Plasma or Tissue Homogenate Conc” value (Plasma, 0.5 h, IP 20 mg/kg) was 10300 ng/mL and 8770 ng/mL. The “Plasma or Tissue Homogenate Conc” value (Plasma, 1 h, IP 20 mg/kg) was 8560 ng/mL and 11200 ng/mL, the “Plasma or Tissue Homogenate Conc” value (Plasma, 2 h, IP 20 mg/kg) was 4380 ng/mL and 4500 ng/mL and the “Plasma or Tissue Homogenate Conc” value (Plasma, 4 h, IP 20 mg/kg) was 2660 ng/mL and 1990 ng/mL. For the same compound, the “Plasma or Tissue Homogenate Conc” value (Plasma, 8 h, IP 20 mg/kg) was 1310 ng/mL and 925 ng/mL, the Kp (male, C57BL/6 J, brain, ip, 20 mg/kg i.p., read-out: mean tissue to plasma ratios (brain)) was at most 0.134 and the Kp at 0.5 h (male, C57BL/6J, kidney/plasma, Kidney, 0.5 h, IP 20 mg/kg, read-out: Mean Tissue/ Plasma Conc Ratio) was 0.94. It also gave a Kp at 0.5 h (male, C57BL/6J, liver/plasma, Liver, 0.5 h, IP 20 mg/kg, read-out: Mean Tissue/ Plasma Conc Ratio) of 1.38, a Kp at 1 h (male, C57BL/6J, liver/plasma, Liver, 1 h, IP 20 mg/kg, read-out: Mean Tissue/ Plasma Conc Ratio) of 1.33 and a Kp at 2 h (male, C57BL/6J, liver/plasma, Liver, 2 h, IP 20 mg/kg, read-out: Mean Tissue/ Plasma Conc Ratio) of 1.3. The Kp at 4 h (male, C57BL/6J, liver/plasma, Liver, 4 h, IP 20 mg/kg, read-out: Mean Tissue/ Plasma Conc Ratio) was 1.25, the Kp at 8 h (male, C57BL/6J, liver/plasma, Liver, 8 h, IP 20 mg/kg, read-out: Mean Tissue/ Plasma Conc Ratio) was 1.06 and the concentration at 0.5 h (male, C57BL/6 J, brain homogenate, ip, Brain, 0.5 h, IP 20 mg/kg, read-out: Mean Plasma or Tissue Homogenate Conc) was 350 ng/mL. It also gave a concentration at 0.5 h (male, C57BL/6 J, brain homogenate, ip, Brain, 0.5 h, IP 20 mg/kg, read-out: Plasma or Tissue Homogenate Conc (individual animals)) of 339 ng/mL, a concentration at 1 h (male, C57BL/6 J, brain homogenate, ip, Brain, 1 h, IP 20 mg/kg, read-out: Mean Plasma or Tissue Homogenate Conc) of 276 ng/mL and a concentration at 1 h (male, C57BL/6 J, brain homogenate, ip, Brain, 1 h, IP 20 mg/kg, read-out: Plasma or Tissue Homogenate Conc (individual animals)) of 186 ng/mL. The concentration at 2 h (male, C57BL/6 J, brain homogenate, ip, Brain, 2 h, IP 20 mg/kg, read-out: Mean Plasma or Tissue Homogenate Conc) was 136 ng/mL, the concentration at 2 h (male, C57BL/6 J, brain homogenate, ip, Brain, 2 h, IP 20 mg/kg, read-out: Plasma or Tissue Homogenate Conc (individual animals)) was 118 ng/mL and the concentration at 4 h (male, C57BL/6 J, brain homogenate, ip, Brain, 4 h, IP 20 mg/kg, read-out: Mean Plasma or Tissue Homogenate Conc) was 57.5 ng/mL. The concentration at 4 h (male, C57BL/6 J, brain homogenate, ip, Brain, 4 h, IP 20 mg/kg, read-out: Plasma or Tissue Homogenate Conc (individual animals)) was 44.1 ng/mL, the concentration at 8 h (male, C57BL/6 J, brain homogenate, ip, Brain, 8 h, IP 20 mg/kg, read-out: Mean Plasma or Tissue Homogenate Conc) was 22.3 ng/mL and the concentration at 8 h (male, C57BL/6 J, brain homogenate, ip, Brain, 8 h, IP 20 mg/kg, read-out: Plasma or Tissue Homogenate Conc (individual animals)) was 20.2 ng/mL. The concentration at 0.5 h (male, C57BL/6 J, brain, ip, Brain, 0.5 h, IP 20 mg/kg, read-out: Mean Tissue) was 1400 ng/g, the concentration at 1 h (male, C57BL/6 J, brain, ip, Brain, 1 h, IP 20 mg/kg, read-out: Mean Tissue) was 1100 ng/g and the concentration at 2 h (male, C57BL/6 J, brain, ip, Brain, 2 h, IP 20 mg/kg, read-out: Mean Tissue) was 543 ng/g. It also gave a concentration at 4 h (male, C57BL/6 J, brain, ip, Brain, 4 h, IP 20 mg/kg, read-out: Mean Tissue) of 230 ng/g, a concentration at 8 h (male, C57BL/6 J, brain, ip, Brain, 8 h, IP 20 mg/kg, read-out: Mean Tissue) of 89.3 ng/g and a concentration at 0.5 h (male, C57BL/6J, kidney homogenate, ip, Kidney, 0.5 h, IP 20 mg/kg, read-out: Mean Plasma or Tissue Homogenate Conc) of 2460 ng/mL. The concentration at 0.5 h (male, C57BL/6J, kidney homogenate, ip, Kidney, 0.5 h, IP 20 mg/kg, read-out: Plasma or Tissue Homogenate Conc (individual animals)) was 2210 ng/mL, the concentration at 1 h (male, C57BL/6 J, kidney homogenate, ip, Kidney, 1 h, IP 20 mg/kg, read-out: Mean Plasma or Tissue Homogenate Conc) was 2130 ng/mL and the concentration at 1 h (male, C57BL/6 J, kidney homogenate, ip, Kidney, 1 h, IP 20 mg/kg, read-out: Plasma or Tissue Homogenate Conc (individual animals)) was 1580 ng/mL. The concentration at 2 h (male, C57BL/6 J, kidney homogenate, ip, Kidney, 2 h, IP 20 mg/kg, read-out: Mean Plasma or Tissue Homogenate Conc) was 1020 ng/mL, the concentration at 2 h (male, C57BL/6 J, kidney homogenate, ip, Kidney, 2 h, IP 20 mg/kg, read-out: Plasma or Tissue Homogenate Conc (individual animals)) was 889 ng/mL and the concentration at 4 h (male, C57BL/6 J, kidney homogenate, ip, Kidney, 4 h, IP 20 mg/kg, read-out: Mean Plasma or Tissue Homogenate Conc) was 439 ng/mL. The concentration at 4 h (male, C57BL/6 J, kidney homogenate, ip, Kidney, 4 h, IP 20 mg/kg, read-out: Plasma or Tissue Homogenate Conc (individual animals)) was 314 ng/mL, the concentration at 8 h (male, C57BL/6 J, kidney homogenate, ip, Kidney, 8 h, IP 20 mg/kg, read-out: Mean Plasma or Tissue Homogenate Conc) was 196 ng/mL and the concentration at 8 h (male, C57BL/6 J, kidney homogenate, ip, Kidney, 8 h, IP 20 mg/kg, read-out: Plasma or Tissue Homogenate Conc (individual animals)) was 153 ng/mL. It also gave a concentration at 0.5 h (male, C57BL/6J, kidney, ip, Kidney, 0.5 h, IP 20 mg/kg, read-out: Mean Tissue) of 9830 ng/g and a concentration at 1 h (male, C57BL/6 J, kidney, ip, Kidney, 1 h, IP 20 mg/kg, read-out: Mean Tissue) of 8510 ng/g.
